The results in this text go back to PubChem BioAssay (NCI).

Some test systems named below: OVCAR-4 ovarian; LOX IMVI melanoma; K-562 leukemia; SR leukemia; TK-10 renal; PC-3 prostate; SK-OV-3 ovarian; MCF7 breast; UO-31 renal; HOP-62 NSCLC; HCT-116 colon; HCT-15 colon; IGROV1 ovarian; UACC-62 melanoma; COLO 205 colon; HCC-2998 colon; A549 NSCLC; CAKI-1 renal; MALME-3M melanoma; MOLT-4 leukemia.
Assay in all cases: NCI anticancer screen, dose series, 48 h

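96-well plates; 48 h exposure; 5 concentrations. Endpoints by linear interpolation between flanking doses. Not reached: highest tested concentration assigned. TGI is the concentration that stops growth completely.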

In the case of `CCOC(=O)CCSc1nc2ccc(I)cc2c(=O)n1Cc1ccccc1`, the TGI in the assay on OVCAR-4 ovarian is above 77.1 µM; in the assay on LOX IMVI melanoma, above 77.3 µM; with K-562 leukemia it was above 100 µM; in the assay on SR leukemia, 29.5 µM; with TK-10 renal, above 88.2 µM; in the assay on PC-3 prostate it was above 100 µM. Further, the TGI was above 100 µM with SK-OV-3 ovarian; above 100 µM in the assay with MCF7 breast; 1.42 µM in the assay with UO-31 renal; above 75.2 µM with HOP-62 NSCLC; above 74.2 µM with HCT-116 colon; above 77.7 µM in the assay with HCT-15 colon. Further, the TGI is above 100 µM with IGROV1 ovarian; above 93.5 µM in the assay on UACC-62 melanoma; 26.9 µM in the assay on COLO 205 colon; above 71.2 µM with HCC-2998 colon; above 100 µM in the assay on A549 NSCLC; 9.59 µM with CAKI-1 renal. The molecule further registered a TGI in the assay on MALME-3M melanoma of 48.4 µM.

As for `CC(=O)OCC1OC(n2c3c(cc(C#N)c2=S)CCC3)C(OC(C)=O)C(OC(C)=O)C1OC(C)=O` (configuration not stated), the TGI with OVCAR-4 ovarian, in the assay with LOX IMVI melanoma, in the assay on K-562 leukemia, in the assay with SR leukemia, with TK-10 renal and in the assay on PC-3 prostate was above 100 µM in each case. In addition, the TGI with MCF7 breast, in the assay with UO-31 renal, in the assay on HOP-62 NSCLC, in the assay on HCT-116 colon, in the assay on HCT-15 colon and in the assay with IGROV1 ovarian was above 100 µM each time. Moreover, the TGI with UACC-62 melanoma, in the assay with COLO 205 colon, in the assay with HCC-2998 colon, with A549 NSCLC, in the assay on CAKI-1 renal and with MOLT-4 leukemia was above 100 µM each time. This molecule registered a TGI in the assay on MALME-3M melanoma above 100 µM.

`Cc1ccc(N=NC(=Nc2ccc(Cl)cc2)c2ccc(N(CCC#N)CCC#N)cc2)cc1`: the TGI in the assay with OVCAR-4 ovarian is above 100 µM; with K-562 leukemia it was above 100 µM; with SR leukemia it was above 100 µM; with TK-10 renal, 95.8 µM; in the assay on PC-3 prostate it was 92 µM; with SK-OV-3 ovarian it was above 100 µM. Further, the TGI in the assay with MCF7 breast, in the assay with UO-31 renal, in the assay on HOP-62 NSCLC, with HCT-116 colon, in the assay on HCT-15 colon and with IGROV1 ovarian was above 100 µM each time. In addition, the TGI with UACC-62 melanoma is above 100 µM; in the assay with COLO 205 colon, 55.6 µM; with HCC-2998 colon, 90.1 µM; with A549 NSCLC it was above 100 µM; with CAKI-1 renal, above 100 µM; in the assay with MOLT-4 leukemia, above 100 µM.

In the case of `COc1ccc2nc3c([N+](=O)[O-])ccc(NCCCN(C)C)c3c(NCCCN(C)C)c2c1`, the TGI was 2.29 µM with OVCAR-4 ovarian; 3 µM with LOX IMVI melanoma; 5.89 µM in the assay on K-562 leukemia; 1.14 µM in the assay on SR leukemia; 5.52 µM with TK-10 renal; 2.24 µM in the assay with PC-3 prostate. Further, the TGI with SK-OV-3 ovarian is 4.14 µM; in the assay with MCF7 breast, 2.33 µM; in the assay with HOP-62 NSCLC it was 3.07 µM; with HCT-15 colon it was 2.86 µM; in the assay on IGROV1 ovarian, 4.07 µM; with UACC-62 melanoma it was above 10 µM. Also, the TGI was 2.61 µM with HCC-2998 colon; 3.43 µM in the assay with A549 NSCLC; 3.98 µM in the assay with CAKI-1 renal; 1.26 µM in the assay on MOLT-4 leukemia; above 10 µM in the assay on MALME-3M melanoma.

For the molecule `COC(=O)C1=C(OC(=O)c2ccccc2)C(C(=O)OC)[C@@]2(O)[C@@H](C(=O)OC)[C@H](C)C[C@@H]1[C@@H]2C(=O)OC` (some centres not stated), the TGI in the assay on OVCAR-4 ovarian, in the assay on LOX IMVI melanoma, in the assay on SR leukemia, in the assay with TK-10 renal, in the assay with PC-3 prostate and in the assay on SK-OV-3 ovarian was above 100 µM each time. In addition, the TGI in the assay with MCF7 breast, with UO-31 renal, in the assay on HOP-62 NSCLC, with HCT-116 colon, in the assay with HCT-15 colon and in the assay with IGROV1 ovarian was above 100 µM throughout. The TGI is above 100 µM with UACC-62 melanoma; 41.1 µM in the assay on COLO 205 colon; 89.7 µM with HCC-2998 colon; 71.6 µM in the assay on A549 NSCLC; above 100 µM in the assay on CAKI-1 renal; above 100 µM with MOLT-4 leukemia. The molecule further showed a TGI in the assay on MALME-3M melanoma above 100 µM.

For `O=C(O)c1nc2ccc(C(F)(F)F)cc2nc1NCc1ccc(Cl)c(Cl)c1`, the TGI in the assay with OVCAR-4 ovarian was determined as 51.4 µM; with LOX IMVI melanoma, 29.8 µM; in the assay with K-562 leukemia it was 42.1 µM; with SR leukemia, 36.5 µM; in the assay on PC-3 prostate, 29.4 µM; in the assay on SK-OV-3 ovarian, 38.5 µM. The TGI in the assay with MCF7 breast amounted to 45.3 µM; with UO-31 renal, 26.2 µM; in the assay with HOP-62 NSCLC it was 32.2 µM; in the assay on HCT-116 colon it was 29.7 µM; in the assay on HCT-15 colon, 36.5 µM; with IGROV1 ovarian it was 30.7 µM. The TGI in the assay with UACC-62 melanoma was 32.5 µM; in the assay with COLO 205 colon, 37.4 µM; in the assay with HCC-2998 colon, 30.5 µM; in the assay on A549 NSCLC, 29.7 µM; in the assay with CAKI-1 renal, 36.9 µM; in the assay on MOLT-4 leukemia, 34.2 µM.

For `Cc1cc(C)c(O)c(CN2CCN(C(C)C)CCN(C(C)C)CC2)c1`, the TGI in the assay on OVCAR-4 ovarian is above 100 µM; in the assay with LOX IMVI melanoma, 42.6 µM; in the assay on K-562 leukemia, above 100 µM; in the assay with SR leukemia, 64 µM; in the assay with TK-10 renal it was above 100 µM; in the assay on PC-3 prostate, above 100 µM. Further, the TGI in the assay on MCF7 breast is above 100 µM; in the assay with UO-31 renal, 82.9 µM; in the assay on HCT-116 colon it was 85.2 µM; with HCT-15 colon, above 100 µM; in the assay with IGROV1 ovarian it was 18.1 µM; in the assay on UACC-62 melanoma, above 100 µM. Moreover, the TGI in the assay on COLO 205 colon was 60.8 µM; in the assay on HCC-2998 colon it was 40.8 µM; with A549 NSCLC it was above 100 µM; with CAKI-1 renal, above 100 µM; with MOLT-4 leukemia, 47.3 µM; with MALME-3M melanoma it was 31.9 µM.

For the molecule `O=C(CCCN1CCC(Nc2ccccc2)(c2nnnn2C2CCCCC2)CC1)c1ccc(F)cc1`, the TGI was 20.5 µM with OVCAR-4 ovarian; above 100 µM in the assay with LOX IMVI melanoma; 33.9 µM in the assay with K-562 leukemia; above 100 µM with SR leukemia; 26.1 µM in the assay on TK-10 renal; 24.7 µM with PC-3 prostate. For the same molecule, the TGI with SK-OV-3 ovarian was 26.1 µM; with MCF7 breast it was 5.74 µM; in the assay with UO-31 renal it was 12.8 µM; in the assay on HOP-62 NSCLC, 21.3 µM; in the assay with HCT-116 colon, 16.4 µM; in the assay with HCT-15 colon, above 100 µM. For the same molecule, the TGI in the assay with IGROV1 ovarian is 23.2 µM; in the assay with UACC-62 melanoma it was 23.9 µM; with COLO 205 colon it was 4.77 µM; in the assay on HCC-2998 colon, 32.1 µM; in the assay on A549 NSCLC it was 20.4 µM; in the assay with MOLT-4 leukemia, 46.2 µM. This molecule showed a TGI in the assay on MALME-3M melanoma of 27.4 µM.
